In publication PMC4138103 (PLoS ONE, 2014):
Where “and” joins values, the source holds several entries; their conditions need not be identical. Equal entries are not always repeated.

System: Sprague-Dawley rats
Assay: Retinoid analyses in liver, serum and kidney
Type: in vivo, Rattus norvegicus
Design: key to Dose response, Liver Retinol: D: significant dose response (for results see Table 2 in the text); T: significant trend; key to Kidney Retinyl esters, Dose response / Liver All-trans RA, Dose response / Kidney All-trans RA, Dose response / Serum Retinol, Dose response: D: significant dose response (for results, see Table 2); T: significant trend
Procedure: Retinoids in liver, serum, and kidney were analyzed according to Schmidt et al.. The polar retinoids 9-cis-retinoic acid (9-cis-RA), 13-cis-retinoic acid (13-cis-RA), 13-cis-4-oxo-retinoic acid (13-cis-4-o-RA), 9-cis-4-oxo-13,14-dihydro-retinoic acid (9-cis-4-o-13,14-dh-RA), all-trans retinoic acid (all-trans RA) and the apolar retinoids retinol and retinyl palmitate were extracted by a single liquid-extraction, separated from each other via solid-phase extraction using an aminopropyl phase, and then injected onto two different HPLC systems that were coupled with UV detection. […] The limits of detection (LOD) for all-trans RA and 9c-4o-13,14-dh-RA were 0.7 and 1.0 pmol/g tissue, and 0.3 and 0.6 pmol/ml serum, respectively. Retinol and retinyl palmitate were separated on a J'sphere ODS-H80 (4.6×150 mm, 4 µm particle size) obtained from YMC (Schermbeck, Germany), and were detected at 325 nm. The LOD for retinol and retinyl palmitate were 5.6 and 5.5 pmol/g tissue, and 4.2 and 4.2 pmol/ml serum, respectively.
Data were also analyzed using the BMD method, which is based on dose-response modeling of the full data set using a nested family of exponential and Hill models. The analyses were done on data of males and females combined, using sex as a covariate. […] In that case, different Critical Effect Doses (CEDs) and CEDs at the lowest bound of the confidence interval (CED-L) were generated for each sex. If no difference between sexes is detected, a CED and CED-Ls for the combined data is generated. However, this was also done if the curve fits are close, and separate analyses for males and females were then performed manually. CEDs and CED-Ls were calculated at the predefined Critical Effect Size (CES) of 5% (EFSA standard) or 10%.

[1] = females, CES 5%, total dose based
[2] = females, CES 10%, total dose based
[3] = females, adipose tissue concentration based
[4] = males, total dose 0-1700 mg/kg bw
[5] = males, total dose 3 mg/kg bw, group mean, N=5
[6] = males, total dose 10 mg/kg bw, group mean, N=5
[7] = males, total dose 30 mg/kg bw, group mean, N=5
[8] = males, total dose 100 mg/kg bw, group mean, N=5
[9] = males, total dose 300 mg/kg bw, Liver
[10] = males, total dose 300 mg/kg bw, group mean, N=5
[11] = males, total dose 1000 mg/kg bw, group mean, N=5
[12] = males, total dose 1700 mg/kg bw, group mean, N=5
[13] = males, CES 5%, total dose based
[14] = males, CES 10%, total dose based
[15] = males, adipose tissue concentration based
[16] = males, controls vs high dose, fitted model
[17] = males, total dose 30 mg/kg bw, n=1

## Clc1cc(Cl)c(-c2cc(Cl)c(Cl)c(Cl)c2Cl)cc1Cl [PCB 180, 2,2′,3′,4,4′,5,5′-heptachlorobiphenyl]
[1]
  Kidney all-trans RA amount, CED-L: 319 mg/kg bw
  Kidney all-trans RA concentration, CED: 457 mg/kg bw
  Kidney all-trans RA concentration, CED-L: 321 mg/kg bw
  Kidney retinol amount, CED: 355 mg/kg bw
  Kidney retinol amount, CED-L: 221 mg/kg bw
  Kidney retinol concentration, CED: 335 mg/kg bw
  Kidney retinol concentration, CED-L: 216 mg/kg bw
  Liver 9c-4o-13,14-dh-RA amount, CED: 13.1 mg/kg bw
  Liver 9c-4o-13,14-dh-RA amount, CED-L: 8.29 mg/kg bw
  Liver 9c-4o-13,14-dh-RA conc., CED: 12 mg/kg bw and 12.2 mg/kg bw
  Liver 9c-4o-13,14-dh-RA conc., CED-L: 8.77 mg/kg bw
  Liver retinol concentration, CED: 156 mg/kg bw
  Liver retinol concentration, CED-L: 119 mg/kg bw
  Liver retinyl esters amount, CED: 254 mg/kg bw
  Liver retinyl esters amount, CED-L: 189 mg/kg bw
  Liver retinyl esters concentration, CED: 122 mg/kg bw
  Liver retinyl esters concentration, CED-L: 104 mg/kg bw
  Serum retinol concentration, CED: 400 mg/kg bw
  Serum retinol concentration, CED-L: 242 mg/kg bw
[2]
  Kidney all-trans RA amount, CED: 965 mg/kg bw
  Kidney all-trans RA amount, CED-L: 625 mg/kg bw
  Kidney all-trans RA concentration, CED: 892 mg/kg bw
  Kidney all-trans RA concentration, CED-L: 626 mg/kg bw
  Kidney retinol amount, CED: 694 mg/kg bw
  Kidney retinol amount, CED-L: 431 mg/kg bw
  Kidney retinol concentration, CED: 655 mg/kg bw
  Kidney retinol concentration, CED-L: 421 mg/kg bw
  Liver 9c-4o-13,14-dh-RA amount, CED: 27.2 mg/kg bw
  Liver 9c-4o-13,14-dh-RA amount, CED-L: 17.2 mg/kg bw
  Liver 9c-4o-13,14-dh-RA conc., CED: 25.3 mg/kg bw
  Liver 9c-4o-13,14-dh-RA conc., CED-L: 18.2 mg/kg bw
  Liver retinol concentration, CED: 374 mg/kg bw
  Liver retinol concentration, CED-L: 263 mg/kg bw
  Liver retinyl esters amount, CED: 522 mg/kg bw
  Liver retinyl esters amount, CED-L: 388 mg/kg bw
  Liver retinyl esters concentration, CED: 252 mg/kg bw
  Liver retinyl esters concentration, CED-L: 214 mg/kg bw
  Serum retinol concentration, CED: 781 mg/kg bw
  Serum retinol concentration, CED-L: 474 mg/kg bw
[3]
  Kidney all-trans RA concentration, CED: 2930 µg/g lipid
  Kidney retinol concentration, CED: 2060 µg/g lipid
  Liver 9c-4o-13,14-dh-RA concentration, CED: 55.5 µg/g lipid and 56 µg/g lipid
  Liver retinol concentration, CED: 1000 µg/g lipid
  Liver retinyl ester concentration, CED: 793 µg/g lipid
  Serum retinol concentration, CED: 2470 µg/g lipid
females, controls vs high dose, fitted model
  Serum retinol concentration, Maximum response: 23.1%
males
  Liver retinol concentration, max. decrease: 47%
  Liver retinyl ester concentration, max. decrease: 63%
[4]
  Dose response, Kidney Retinol: D, T
  Dose response, Kidney Retinyl esters: D, T
  Dose response, Liver All-trans RA: D, T
  Dose response, Liver Retinol: D
  Dose response, Liver Retinyl esters: D, T
  Kidney Retinol, Dose response: D, T
  Kidney Retinyl esters, Dose response: D
  Liver All-trans RA, Dose response: D
  Liver Retinol, Dose response: D, T
  Liver Retinyl esters, Dose response: D, T
[5]
  Kidney All-trans RA: 35.9 pmol
  Kidney Retinol: 14.2 nmol
  Kidney Retinyl esters: 4.99 nmol
  Liver 9-cis-4o-13,14-dh RA: 218 pmol
  Liver All-trans RA: 544 pmol
  Liver Retinol: 0.28 µmol
  Liver Retinyl esters: 11.5 µmol
[6]
  Kidney All-trans RA: 36.9 pmol
  Kidney Retinol: 17.6 nmol
  Kidney Retinyl esters: 8.73 nmol
  Liver All-trans RA: 632 pmol
  Liver Retinol: 0.32 µmol
  Liver Retinyl esters: 12.5 µmol
males, total dose 30 mg/kg bw
  Kidney All-trans RA: 31.8 pmol/g
  Kidney Retinol: 16.9 nmol/g
  Kidney Retinyl esters: 7.83 nmol/g
  Liver All-trans RA: 44.5 pmol/g
  Liver Retinol: 20.5 nmol/g
  Liver Retinyl esters: 0.77 µmol/g
  Serum Retinyl esters: 46.5 pmol/mL
males, total dose 30 mg/kg bw, Liver
  Liver Retinyl esters: 46.5 pmol/mL
males, total dose 30 mg/kg bw, Liver, n=4
  Liver Retinol: 1.65 pmol/mL
[7]
  Kidney All-trans RA: 33.3 pmol
  Kidney Retinol: 17.5 nmol
  Kidney Retinyl esters: 8.12 nmol
  Liver All-trans RA: 623 pmol
  Liver Retinol: 0.29 µmol
  Liver Retinyl esters: 10.7 µmol
males, total dose 30 mg/kg bw, n=4
  Serum Retinol: 1.65 pmol/mL
males, total dose 100 mg/kg bw
  Kidney All-trans RA: 34.8 pmol/g
  Kidney Retinol: 16.3 nmol/g
  Kidney Retinyl esters: 8.27 nmol/g
  Liver All-trans RA: 44.4 pmol/g
  Liver Retinol: 15.7 nmol/g
  Liver Retinyl esters: 0.62 µmol/g
  Serum Retinyl esters: 84.5 pmol/mL
males, total dose 100 mg/kg bw, Liver
  Liver Retinyl esters: 84.5 pmol/mL
males, total dose 100 mg/kg bw, Liver, n=4
  Liver Retinol: 1.75 pmol/mL
[8]
  Kidney All-trans RA: 37.0 pmol
  Kidney Retinol: 17.3 nmol
  Kidney Retinyl esters: 8.84 nmol
  Liver All-trans RA: 744 pmol
  Liver Retinol: 0.26 µmol
  Liver Retinyl esters: 10.3 µmol
males, total dose 100 mg/kg bw, n=3
  Liver 9-cis-4o-13,14-dh-RA: 22.7 pmol/g
males, total dose 100 mg/kg bw, n=4
  Serum Retinol: 1.75 pmol/mL
males, total dose 300 mg/kg bw
  Kidney All-trans RA: 35.9 pmol/g
  Kidney Retinol: 17.5 nmol/g
  Kidney Retinyl esters: 13.9 nmol/g
  Liver All-trans RA: 48.1 pmol/g
  Liver Retinol: 17.4 nmol/g
  Liver Retinyl esters: 0.56 µmol/g
  Serum Retinol: 1.64 pmol/mL
  Serum Retinyl esters: 67.8 pmol/mL
[9]
  Liver Retinol: 1.64 pmol/mL
  Liver Retinyl esters: 67.8 pmol/mL
[10]
  Kidney All-trans RA: 37.8 pmol
  Kidney Retinol: 18.2 nmol
  Kidney Retinyl esters: 14.5 nmol
  Liver All-trans RA: 863 pmol
  Liver Retinol: 0.31 µmol
  Liver Retinyl esters: 10.1 µmol
males, total dose 300 mg/kg bw, n=4
  Liver 9-cis-4o-13,14-dh-RA: 20.9 pmol/g
[11]
  Kidney All-trans RA: 35.9 pmol
  Kidney Retinol: 24.5 nmol
  Kidney Retinyl esters: 24.5 nmol
  Liver 9-cis-4o-13,14-dh RA: 455 pmol
  Liver All-trans RA: 1077 pmol
  Liver Retinol: 0.27 µmol
  Liver Retinyl esters: 8.2 µmol
[12]
  Kidney All-trans RA: 32.4 pmol
  Kidney Retinol: 23.3 nmol
  Kidney Retinyl esters: 25.2 nmol
  Liver All-trans RA: 1178 pmol
  Liver Retinol: 0.23 µmol
  Liver Retinyl esters: 6.4 µmol
[13]
  Kidney retinol amount, CED: 206 mg/kg bw
  Kidney retinol amount, CED-L: 147 mg/kg bw
  Kidney retinol concentration, CED: 200 mg/kg bw
  Kidney retinol concentration, CED-L: 149 mg/kg bw
  Kidney retinyl esters amount, CED: 9.14 mg/kg bw
  Kidney retinyl esters amount, CED-L: 3.10 mg/kg bw
  Kidney retinyl esters concentration, CED: 9.9 mg/kg bw and 9.88 mg/kg bw
  Kidney retinyl esters concentration, CED-L: 3.35 mg/kg bw
  Liver all-trans RA amount, CED: 21.7 mg/kg bw
  Liver all-trans RA amount, CED-L: 9.07 mg/kg bw
  Liver all-trans RA concentration, CED: 450 mg/kg bw
  Liver all-trans RA concentration, CED-L: 268 mg/kg bw
  Liver retinol amount, CED: 437 mg/kg bw
  Liver retinol amount, CED-L: 261 mg/kg bw
  Liver retinol concentration, CED: 32 mg/kg bw and 31.9 mg/kg bw
  Liver retinol concentration, CED-L: 6.10 mg/kg bw
  Liver retinyl esters amount, CED: 145 mg/kg bw
  Liver retinyl esters amount, CED-L: 123 mg/kg bw
  Liver retinyl esters concentration, CED: 22 mg/kg bw and 21.5 mg/kg bw
  Liver retinyl esters concentration, CED-L: 12.9 mg/kg bw
[14]
  Kidney retinol amount, CED: 402 mg/kg bw
  Kidney retinol amount, CED-L: 288 mg/kg bw
  Kidney retinol concentration, CED: 390 mg/kg bw
  Kidney retinol concentration, CED-L: 291 mg/kg bw
  Kidney retinyl esters amount, CED: 18.5 mg/kg bw
  Kidney retinyl esters amount, CED-L: 6.26 mg/kg bw
  Kidney retinyl esters concentration, CED: 20 mg/kg bw
  Kidney retinyl esters concentration, CED-L: 6.77 mg/kg bw
  Liver all-trans RA amount, CED: 44.7 mg/kg bw
  Liver all-trans RA amount, CED-L: 18.7 mg/kg bw
  Liver all-trans RA concentration, CED: 879 mg/kg bw
  Liver all-trans RA concentration, CED-L: 523 mg/kg bw
  Liver retinol amount, CED: 897 mg/kg bw
  Liver retinol amount, CED-L: 536 mg/kg bw
  Liver retinol concentration, CED: 56 mg/kg bw
  Liver retinol concentration, CED-L: 10.4 mg/kg bw
  Liver retinyl esters amount, CED: 296 mg/kg bw
  Liver retinyl esters amount, CED-L: 252 mg/kg bw
  Liver retinyl esters concentration, CED: 43.9 mg/kg bw
  Liver retinyl esters concentration, CED-L: 26.6 mg/kg bw
[15]
  Kidney retinol concentration, CED: 863 µg/g lipid
  Kidney retinyl ester concentration, CED: 42 µg/g lipid
  Liver all-trans RA concentration, CED: 1920 µg/g lipid
  Liver retinol concentration, CED: 31 µg/g lipid
  Liver retinol, CED-L: 18800 ng/g lipid
  Liver retinyl ester concentration, CED: 108 µg/g lipid
[16]
  Kidney retinol concentration, Maximum response: 51.5%
  Liver all-trans RA concentration, Maximum response: 20% and 20.3%
males, total dose 10 mg/kg bw, group mean, n=3
  Liver 9-cis-4o-13,14-dh RA: 163 pmol
[17]
  Liver 9-cis-4o-13,14-dh RA: 389b pmol
  Liver 9-cis-4o-13,14-dh-RA: 30.8 pmol·days/g
males, total dose 100 mg/kg bw, group mean, n=3
  Liver 9-cis-4o-13,14-dh RA: 434 pmol
males, total dose 300 mg/kg bw, group mean, n=4
  Liver 9-cis-4o-13,14-dh RA: 403 pmol
males, total dose 1700 mg/kg bw, group mean, n=4, one exceptionally high value excluded as an outlier
  Liver 9-cis-4o-13,14-dh RA: 454 pmol
